The test system of one data set is S. aureus. Briefly: microbe, parasite or virus in culture. Conditions: for MIC: CAMHB, 24 h, three independent experiments. As to the method: (§1) Briefly, bacterial colonies from blood agar plates were suspended and grown in Cation-Adjusted Mueller-Hinton Broth (CAMHB, […] Ca^2+, […] Mg^2+). The bacterial suspension was adjusted to 0.5 McFarland standard (∼1 × 10^8 colony-forming units (CFU)/ml) and serial diluted 1:200 in CAMHB (∼5 × 10^5 CFU/mL). […] The suspension was plated out on blood agar plates to confirm the CFU/ml. Both the microtiter plates and the blood agar plates were incubated at 37°C for 24 h.

Data set [1] has as its system E. coli. Description: microbe, parasite or virus in culture. Conditions: for MIC: Escherichia coli; for MIC E. coli: K-12 MG1655, CLSI broth microdilution, CAMHB, 37°C, visible growth, net peptide concentration. As to the method: as §1
(In general: In broth dilution the organism is exposed to a series of concentrations in liquid medium.)

The next data set has as its system K. pneumoniae. Briefly: microbe, parasite or virus in culture. The note with it: for MIC: Klebsiella pneumoniae. How it is done:
as §1

For a further data set, the system named is A. baumannii. Briefly: microbe, parasite or virus in culture. Conditions: for MIC: Acinetobacter baumannii. How it is done:
as §1

Another data set has as its system P. aeruginosa. Briefly: microbe, parasite or virus in culture. Conditions: for MIC: Pseudomonas aeruginosa. How it is done:
as §1

In another data set the test system is HEK293 cells. As to the method:
HEK293 cells (6,000 cells/well) were seeded in 96-well microtiter plates. After 4 h, APIM-peptides (12–48 μg/ml) were added, and the cells were incubated without change of media for up to 4 days. Viability was measured using the 3-(4,5-dimethylthiazol-2-yl)-2,5-diphenyltetrazolium bromide (MTT) assay as described ([Gilljam et al., 2009]).
(1 picture or pasted object on this page, not shown here)

In data set [2] the test system is E. coli. Description: Rifampicin (RifR) mutagenesis assay after UV-C. It counts as cell-based, Escherichia coli. How it is done: The rifampicin (Rif^R) mutagenesis assay was performed as described ([Nedal et al., 2020]). Briefly, an overnight culture of E. coli was diluted 1:1,000 and grown until an OD600 of 0.01. APIM-peptides (20 μg/ml) were added to LB media with glass beads (for uniform distribution of APIM-peptides) and incubated for 30 min at 37°C. The pellets were next collected, resuspended in 500 μl PBS, and exposed to UV-C (20 mJ/cm^2) in a six-well plate at 4°C. The unexposed bacteria (-UV) were otherwise handled exactly like the UV-exposed bacteria. Next, the cells were resuspended in LB media and incubated in a rotary shaker at 37°C at 250 rpm for 2 h before being harvested, diluted, and plated on LB with soft agar with and without rifampicin (100 μg/ml). Mutation frequency, Rif^R/10^8, is obtained as follows: (number of colonies on the rifampicin plate (Rif^R)/(number of colonies on LB plates without antibiotics), per milliliter of bacterial suspension. […]
mutagenesis in E. coli more efficiently than the other peptide variants.
Increase in mutation frequencies after treatment with UV-C (20 mJ/cm2) relative to spontaneous mutations frequencies using the RifR assay were determined. This increase is set to 100% for untreated control, and % reduction after addition of peptides 1-5 (20 μg/mL) are shown. Mean ± SD from three independent experiments. * p<0.05, ** p<0.005

For data set [3], the system named is S. epidermidis MRSE (SO-SEP9-1). Conditions: SO-SEP9-1, 24 h. How it is done:
as §1

Data set [4] deals with E. coli. Description: Growth inhibition assay (OD600 over 24 h). The format is cell-based, Escherichia coli. On the set-up: Reduction of viability E. coli (60 μg/ml): key to the marks not given beside the values. Conditions: 60 μg/ml peptide, LB medium, OD600 every hour over 24 h, relative to untreated control. How it is done: An overnight culture of Escherichia coli was diluted 1:100 in Luria-Bertani (LB) medium and allowed to grow until an optical density (OD) at 600 nm (OD600) of 0.06–0.1. APIM-peptides were prepared by serial dilution in Milli-Q H2O and kept at 4°C. Fresh LB medium (60 μl) was added to a flat-bottom microtiter plate. The bacterial suspension was diluted 1:100 in LB, and 75 μl of this suspension was added to the wells. Finally, 15 μl of APIM-peptide solution (to final concentrations 60, 120, and 240 μg/ml) or distilled water (positive control) was added to the wells, reaching a total volume of 150 μl per well. Data are presented only for the dose that separated the effect of the different peptides, i.e., 60 μg/ml. A blank sterile medium was used as negative control. The plates were incubated with shaking at 510 rpm at 37°C inside a plate reader (TECAN, Spark®), and OD was read every hour over a period of 24 h.
The MIC for E. coli in LB medium is higher than that in CAMHB; thus, concentrations higher than the MIC given in Table 2 are used in the growth inhibition and mutagenesis assays. […]
E. coli. Growth of E. coli in LB medium over 24 hours (Optical Density (OD) 600 nm) after addition
of APIM-peptide variants 1-5 (60 µg/mL) at time t=0 (see Table 2). Negative (-) control is no
bacteria added, positive (+) control is untreated bacteria.
highest inhibition of growth.
control (black filled line).

Where [5] appears, read: Staphylococcus aureus, ATCC29213, 24 h, Reference strain ATCC 29213.
Where [6] appears, read: Staphylococcus aureus, MRSA, Clinical isolate SO-SAU19-1 (MRSA).
Setting [7] is: SO-ECO19-1 (ESBL-CARB-A(CTX-M-24)/D(OXA-48)).

The source of these data is publication PMC8661032, “Broad-Spectrum Antibacterial Peptide Kills Extracellular and Intracellular Bacteria Without Affecting Epithelialization” (Frontiers in Microbiology, 2021).

Converted amounts (≈) assume the structure as drawn. Residues, ends and D or L forms follow the SMILES beside them.

On to `CO[C@@]1(NC(=O)Cc2cccs2)C(=O)N2C(C(=O)O)=C(COC(N)=O)CS[C@@H]21` [Cefoxitin, cefoxitin], for which the figures for the “Combination effect with 0.5× MIC betatide” value (shortened to “Combination effect”) in the data set with S. aureus (ATCC 29213) and in the data set on S. aureus (SO-SAU19-1 (MRSA)) were “None” and “Additive 2×”, respectively. The MIC was 4 µg/mL (≈ 9.36 µM) with S. aureus (setting [5]) and 32 µg/mL (≈ 74.9 µM) in the data set on S. aureus (setting [6]).
With `CO/N=C(\C(=O)N[C@@H]1C(=O)N2C(C(=O)O)=C(CSc3nc(=O)c(=O)[nH]n3C)CS[C@H]12)c1csc(N)n1` [Ceftriaxone, ceftriaxone], the MIC was 1020 µg/mL (≈ 1850 µM) in the data set with E. coli [1] (24 h) and 0.06 µg/mL (≈ 0.108 µM) against E. coli [1] (MG1655, 24 h). The “Combination effect” value is “None” with E. coli [1] (MG1655) and “Additive 4×” in the data set on E. coli [1] (setting [7]).
For the compound `CCC[C@@H]1C[C@@H](C(=O)N[C@@H]([C@H]2O[C@H](SC)[C@H](O)[C@@H](O)[C@H]2O)[C@H](C)Cl)N(C)C1` [Clindamycin, clindamycin], the “Combination effect” value in the data set with S. aureus (ATCC 29213) and in the data set with S. aureus (SO-SAU19-1 (MRSA)) was “Additive 2×” in each case. Further, the MIC came to 0.25 µg/mL (≈ 0.588 µM) in the data set on S. aureus (setting [5]) and 2050 µg/mL (≈ 4820 µM) against S. aureus (setting [6]).
`C[C@@H](O)[C@H]1C(=O)N2C(C(=O)O)=C(S[C@@H]3CN[C@H](C(=O)Nc4cccc(C(=O)O)c4)C3)[C@H](C)[C@H]12` [Ertapenem, ertapenem]: the “Combination effect” value was “Additive 4×” with K. pneumoniae (ATCC 13883), “Additive 2×” in the data set with K. pneumoniae (SO-KPN19-1 (ESBL-CARBA-D)), “None” in the data set with E. coli [1] (MG1655) and “Additive 2×” in the data set with E. coli [1] (setting [7]). Moreover, the MIC in the data set on K. pneumoniae (24 h) came out at 32 µg/mL (≈ 67.3 µM); with K. pneumoniae (ATCC13883, 24 h) it was 0.03 µg/mL (≈ 0.0631 µM); in the data set on E. coli [1] (24 h) it was 64 µg/mL (≈ 135 µM); against E. coli [1] (MG1655, 24 h), 0.06 µg/mL (≈ 0.126 µM).
`CC(=O)O[C@H]1C[C@@]2(C)[C@@H](C[C@@H](O)[C@H]3[C@@]4(C)CC[C@@H](O)[C@@H](C)[C@@H]4CC[C@@]32C)/C1=C(\CCC=C(C)C)C(=O)O` [Fusidic acid, fusidic acid]: the “Combination effect” value is “Additive, 2×” in the data set on S. aureus (ATCC 29213); “Additive 8×” in the data set on S. aureus (SO-SAU19-1 (MRSA)); “Additive 2×” in the data set with S. aureus (SO-SAU 19-2 (FR-MRSA)); “Additive 4×” in the data set with S. aureus (SO-SAU 19-3 (FR-MRSA)); “Additive 2×” in the data set with S. aureus (SO-SAU 19-4 (FR-MRSA)). In addition, the MIC against S. aureus (SO-SAU 19-4 (FR-MRSA)) was determined as 8 µg/mL (≈ 15.5 µM); with S. aureus (setting [5]) it was 0.25 µg/mL (≈ 0.484 µM); against S. aureus (setting [6]) it was 0.25 µg/mL (≈ 0.484 µM); against S. aureus (Staphylococcus aureus, MRSA, SO-SAU 19-2 (FR-MRSA)), 8 µg/mL (≈ 15.5 µM). Besides, in the data set on S. aureus (fusidic acid-sensitive MRSA strain), the “reduction in MIC of fusidic acid when combined with 0.5× MIC betatide” value was found to be 8 ×.
Turning to `C[C@@H](O)[C@H]1C(=O)N2C(C(=O)O)=C(S[C@@H]3CN[C@H](C(=O)N(C)C)C3)[C@H](C)[C@H]12` [Meropenem, meropenem], the “Combination effect” value with A. baumannii (ATCC 19606) is “None”; with A. baumannii (SO-ABA19-1 (ESBL-CARBA-D)), “None”; in the data set with P. aeruginosa (ATCC 27853), “None”; with P. aeruginosa (SO-PAE19-1 (multidrug resistant)), “Additive 2×”. In addition, the MIC turned out to be 512 µg/mL (≈ 1340 µM) against A. baumannii (24 h); 4 µg/mL (≈ 10.4 µM) in the data set with A. baumannii (ATCC19606, 24 h); 64 µg/mL (≈ 167 µM) against P. aeruginosa (24 h); 0.5 µg/mL (≈ 1.3 µM) with P. aeruginosa (ATCC27853, 24 h).
On to `COc1cccc(OC)c1C(=O)N[C@@H]1C(=O)N2[C@@H]1SC(C)(C)[C@@H]2C(=O)O` [Methicillin, methicillin], for which the entries for the “Combination effect” value in the data set on S. aureus (ATCC 29213) and in the data set with S. aureus (SO-SAU19-1 (MRSA)) were “Additive 2×” and “Additive 4×”, respectively. The MIC was 1 µg/mL (≈ 2.63 µM) against S. aureus (setting [5]) and 8 µg/mL (≈ 21 µM) with S. aureus (setting [6]).
In the case of `CC[C@H](C)[C@H](NC(=O)CNC(=O)[C@H](CCCCN)NC(=O)[C@@H](NC(=O)[C@H](CC(C)C)NC(=O)[C@H](Cc1c[nH]c2ccccc12)NC(=O)[C@H](CCCNC(=N)N)NC(=O)[C@H](CC(=O)O)NC(=O)[C@H](CCSC)NC(C)=O)C(C)C)C(=O)N[C@@H](CC(C)C)C(=O)N[C@@H](CCC(N)=O)C(=O)N[C@@H](Cc1c[nH]c2ccccc12)C(=O)N[C@@H](CCCNC(=N)N)C(=O)N[C@@H](CCCCN)C(=O)N[C@H](C(=O)N[C@@H](CCCNC(=N)N)C(=O)N[C@@H](CCCNC(=N)N)C(=O)N[C@@H](CCCNC(=N)N)C(=O)N[C@@H](CCCNC(=N)N)C(=O)N[C@@H](CCCNC(=N)N)C(=O)N[C@@H](CCCNC(=N)N)C(=O)N[C@@H](CCCNC(=N)N)C(=O)N[C@@H](CCCNC(=N)N)C(=O)N[C@@H](CCCNC(=N)N)C(=O)N[C@@H](CCCNC(=N)N)C(N)=O)[C@@H](C)CC` [Peptide 3] (Ac-MDRWLVKGILQWRKIRRRRRRRRRR-NH2), in the data set with E. coli [1] (24 h), the “MIC E. coli” value was determined as 32 µg/mL (≈ 9.03 µM). Besides, the “Reduction of viability HEK293 (24 μg/ml)” value in the data set with HEK293 cells is given as “+”. Further, the “UV-induced mutation frequencies relative to control” value in the data set with E. coli [2] (20 μg/mL, UV-C 20 mJ/cm2, RifR assay, three independent experiments) is recorded as “significantly reduced”. The “Reduction of mutation frequency E. coli (20 μg/ml)” value with E. coli [2] (20 μg/ml peptide, UV-C 20 mJ/cm^2, RifR assay, relative to untreated control) is listed as “++”. Moreover, the “MIC S. epidermidis MRSE” value in [3] was 16 µg/mL (≈ 4.51 µM).
As to `CC[C@H](C)[C@H](NC(=O)CNC(=O)[C@H](CCCCN)NC(=O)[C@@H](NC(=O)[C@H](CC(C)C)NC(=O)[C@H](Cc1c[nH]c2ccccc12)NC(=O)[C@H](CCCNC(=N)N)NC(=O)[C@H](CC(=O)O)NC(=O)[C@H](CCSC)NC(C)=O)C(C)C)C(=O)N[C@@H](CC(C)C)C(=O)N[C@@H](CCC(N)=O)C(=O)N[C@@H](Cc1c[nH]c2ccccc12)C(=O)N[C@@H](CCCNC(=N)N)C(=O)N[C@@H](CCCCN)C(=O)N[C@H](C(=O)N[C@@H](CCCNC(=N)N)C(=O)N[C@@H](CCCNC(=N)N)C(=O)N[C@@H](CCCNC(=N)N)C(=O)N[C@@H](CCCNC(=N)N)C(=O)N[C@@H](CCCNC(=N)N)C(=O)N[C@@H](CCCNC(=N)N)C(=O)N[C@@H](CCCNC(=N)N)C(=O)N[C@@H](CCCNC(=N)N)C(=O)N[C@@H](CCCNC(=N)N)C(N)=O)[C@@H](C)CC` [Peptide 4] (Ac-MDRWLVKGILQWRKIRRRRRRRRR-NH2), in the data set with E. coli [1] (24 h), the “MIC E. coli” value was found to be 32 µg/mL (≈ 9.44 µM). Further, in the data set on E. coli [4], the “Reduction of viability E. coli (60 μg/ml)” value is recorded as “++”. In addition, the “MIC S. epidermidis MRSE” value in [3] was found to be 16 µg/mL (≈ 4.72 µM).
